Laboratory results reported in the kinase profiling compilation of Christmann-Franck et al. (2016).

Key:
Test in all cases: KINOMEscan competition binding
Conditions in all cases: compound 10.0 µM
[1] = biological target: EPHB1 (human) (UniProt P54762)
[2] = biological target: NEK2 (human) (UniProt P51955)
[3] = biological target: TAOK1 (human) (UniProt Q7L7X3)
[4] = biological target: PIM2 (human) (UniProt Q9P1W9)
[5] = biological target: FLT1 (human) (UniProt P17948)
[6] = biological target: ULK1 (human) (UniProt O75385)
[7] = biological target: PTK2 (human) (UniProt Q05397)
[8] = biological target: PAK3 (human) (UniProt O75914)
[9] = biological target: GAK (human) (UniProt O14976)
[10] = biological target: NUAK1 (human) (UniProt O60285)
[11] = biological target: EPHA8 (human) (UniProt P29322)
[12] = biological target: LTK (human) (UniProt P29376)
[13] = biological target: PIM3 (human) (UniProt Q86V86)
[14] = tested on: FLT3 (human), P36888 [ITD]
[15] = biological target: LYN (human) (UniProt P07948)
[16] = biological target: LCK (human) (UniProt P06239)
[17] = biological target: CSNK2A1 (human) (UniProt P68400)
[18] = biological target: PRKCE (human) (UniProt Q02156)
[19] = biological target: CSNK2A2 (human) (UniProt P19784)
[20] = biological target: MAP3K7 (human) (UniProt O43318)
[21] = biological target: AKT1 (human) (UniProt P31749)
[22] = biological target: CAMK1D (human) (UniProt Q8IU85)
[23] = biological target: TEK (human) (UniProt Q02763)
[24] = biological target: MKNK2 (human) (UniProt Q9HBH9)
[25] = biological target: MAPK12 (human) (UniProt P53778)
[26] = biological target: RPS6KA5 KD1 (human) (UniProt O75582)
[27] = biological target: PAK7 (human) (UniProt Q9P286)
[28] = biological target: PKMYT1 (human) (UniProt Q99640)
[29] = biological target: FES (human) (UniProt P07332)
[30] = biological target: GSK3B (human) (UniProt P49841)
[31] = biological target: NLK (human) (UniProt Q9UBE8)
[32] = biological target: MAPK8 (human) (UniProt P45983)
[33] = biological target: EPHB4 (human) (UniProt P54760)
[34] = biological target: PRKCH (human) (UniProt P24723)
[35] = biological target: CSF1R (human) (UniProt P07333)
[36] = biological target: CDK17 (human) (UniProt Q00537)
[37] = biological target: LIMK1 (human) (UniProt P53667)
[38] = biological target: MAPK7 (human) (UniProt Q13164)
[39] = biological target: STK36 (human) (UniProt Q9NRP7)
[40] = biological target: PRKG2 (human) (UniProt Q13237)
[41] = biological target: PIM1 (human) (UniProt P11309)

Sequence of AKT1 (human) (P31749 whole entry, looked up): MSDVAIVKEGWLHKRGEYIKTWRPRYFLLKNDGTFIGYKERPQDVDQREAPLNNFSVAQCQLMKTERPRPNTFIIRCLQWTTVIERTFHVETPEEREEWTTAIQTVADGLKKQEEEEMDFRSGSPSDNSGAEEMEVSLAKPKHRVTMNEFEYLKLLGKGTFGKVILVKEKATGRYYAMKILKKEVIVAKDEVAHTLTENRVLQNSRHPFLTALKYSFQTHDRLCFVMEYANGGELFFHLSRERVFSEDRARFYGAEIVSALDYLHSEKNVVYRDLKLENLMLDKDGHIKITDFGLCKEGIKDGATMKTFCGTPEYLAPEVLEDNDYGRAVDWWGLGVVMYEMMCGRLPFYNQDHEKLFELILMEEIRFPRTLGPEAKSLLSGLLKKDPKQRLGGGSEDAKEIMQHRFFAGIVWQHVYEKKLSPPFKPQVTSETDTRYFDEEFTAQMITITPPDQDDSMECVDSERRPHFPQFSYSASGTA
Sequence of MAPK12 (human) (P53778 whole entry, looked up): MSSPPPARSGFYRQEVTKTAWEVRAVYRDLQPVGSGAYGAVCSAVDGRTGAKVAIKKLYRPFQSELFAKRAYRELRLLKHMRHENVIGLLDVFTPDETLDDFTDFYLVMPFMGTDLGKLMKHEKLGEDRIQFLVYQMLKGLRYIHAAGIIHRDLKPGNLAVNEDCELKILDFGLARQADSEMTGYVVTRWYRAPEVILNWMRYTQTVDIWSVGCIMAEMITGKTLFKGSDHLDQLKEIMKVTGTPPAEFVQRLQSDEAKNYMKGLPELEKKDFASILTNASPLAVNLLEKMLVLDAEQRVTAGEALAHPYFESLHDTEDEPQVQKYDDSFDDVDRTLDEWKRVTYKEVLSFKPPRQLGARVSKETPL
Sequence of PIM2 (human) (Q9P1W9 whole entry, looked up): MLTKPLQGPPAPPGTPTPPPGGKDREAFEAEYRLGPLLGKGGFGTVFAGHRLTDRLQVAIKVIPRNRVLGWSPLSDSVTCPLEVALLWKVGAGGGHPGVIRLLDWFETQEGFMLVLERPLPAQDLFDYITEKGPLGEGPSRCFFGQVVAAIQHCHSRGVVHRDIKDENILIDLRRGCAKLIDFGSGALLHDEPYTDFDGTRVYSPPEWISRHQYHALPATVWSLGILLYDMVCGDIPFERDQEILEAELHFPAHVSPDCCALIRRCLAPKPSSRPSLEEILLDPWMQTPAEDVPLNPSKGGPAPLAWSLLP
Sequence of NUAK1 (human) (O60285 whole entry, looked up): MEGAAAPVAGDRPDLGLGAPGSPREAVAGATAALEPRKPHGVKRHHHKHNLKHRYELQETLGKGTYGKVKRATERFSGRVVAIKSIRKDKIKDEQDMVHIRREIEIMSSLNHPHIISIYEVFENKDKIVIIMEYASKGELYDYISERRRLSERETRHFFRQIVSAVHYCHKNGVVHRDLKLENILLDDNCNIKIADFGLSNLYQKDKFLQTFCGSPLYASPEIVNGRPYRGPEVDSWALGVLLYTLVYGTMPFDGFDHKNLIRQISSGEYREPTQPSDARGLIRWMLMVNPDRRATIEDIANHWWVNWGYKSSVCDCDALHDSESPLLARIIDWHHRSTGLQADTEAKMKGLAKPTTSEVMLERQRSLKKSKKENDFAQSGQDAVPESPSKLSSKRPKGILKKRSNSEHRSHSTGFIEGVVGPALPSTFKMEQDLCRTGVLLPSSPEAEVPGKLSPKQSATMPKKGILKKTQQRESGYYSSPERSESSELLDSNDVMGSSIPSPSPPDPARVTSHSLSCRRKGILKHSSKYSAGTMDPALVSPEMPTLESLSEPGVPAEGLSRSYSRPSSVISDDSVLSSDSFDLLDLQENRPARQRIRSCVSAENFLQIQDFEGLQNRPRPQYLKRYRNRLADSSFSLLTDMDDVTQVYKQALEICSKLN
Sequence of PRKG2 (human) (Q13237 whole entry, looked up): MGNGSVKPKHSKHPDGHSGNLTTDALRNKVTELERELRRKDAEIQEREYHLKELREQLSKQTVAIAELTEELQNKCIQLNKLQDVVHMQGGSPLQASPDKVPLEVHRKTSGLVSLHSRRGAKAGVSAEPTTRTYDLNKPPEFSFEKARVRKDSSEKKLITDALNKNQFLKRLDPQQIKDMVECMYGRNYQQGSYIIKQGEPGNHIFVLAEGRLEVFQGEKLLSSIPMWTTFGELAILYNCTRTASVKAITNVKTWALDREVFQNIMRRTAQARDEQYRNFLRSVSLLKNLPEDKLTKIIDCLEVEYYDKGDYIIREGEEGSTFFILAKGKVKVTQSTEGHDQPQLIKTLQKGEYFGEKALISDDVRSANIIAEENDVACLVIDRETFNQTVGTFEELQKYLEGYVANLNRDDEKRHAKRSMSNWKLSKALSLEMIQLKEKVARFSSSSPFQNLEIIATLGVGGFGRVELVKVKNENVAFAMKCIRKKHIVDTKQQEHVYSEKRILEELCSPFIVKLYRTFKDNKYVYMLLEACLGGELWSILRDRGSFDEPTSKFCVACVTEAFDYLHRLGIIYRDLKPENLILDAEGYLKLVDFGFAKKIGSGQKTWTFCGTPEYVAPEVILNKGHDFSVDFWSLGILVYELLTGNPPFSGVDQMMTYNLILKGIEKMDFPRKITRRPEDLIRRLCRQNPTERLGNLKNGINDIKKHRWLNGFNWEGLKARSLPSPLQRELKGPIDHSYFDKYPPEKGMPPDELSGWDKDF
Sequence of MKNK2 (human) (Q9HBH9 whole entry, looked up): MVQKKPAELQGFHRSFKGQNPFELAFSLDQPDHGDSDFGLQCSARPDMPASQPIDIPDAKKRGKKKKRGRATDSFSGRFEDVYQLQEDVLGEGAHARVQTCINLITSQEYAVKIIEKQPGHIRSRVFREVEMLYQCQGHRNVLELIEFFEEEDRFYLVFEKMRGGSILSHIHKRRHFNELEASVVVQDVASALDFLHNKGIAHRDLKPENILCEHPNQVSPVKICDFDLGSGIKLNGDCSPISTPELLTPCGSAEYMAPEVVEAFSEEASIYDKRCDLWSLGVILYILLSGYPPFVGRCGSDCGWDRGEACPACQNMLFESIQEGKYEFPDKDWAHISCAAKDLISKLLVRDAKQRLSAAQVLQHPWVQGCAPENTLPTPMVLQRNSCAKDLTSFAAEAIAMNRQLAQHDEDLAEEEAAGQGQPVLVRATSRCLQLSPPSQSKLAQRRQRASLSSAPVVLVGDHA
Sequence of FLT3 (human), P36888 [ITD] (P36888 whole entry, looked up, change not shown): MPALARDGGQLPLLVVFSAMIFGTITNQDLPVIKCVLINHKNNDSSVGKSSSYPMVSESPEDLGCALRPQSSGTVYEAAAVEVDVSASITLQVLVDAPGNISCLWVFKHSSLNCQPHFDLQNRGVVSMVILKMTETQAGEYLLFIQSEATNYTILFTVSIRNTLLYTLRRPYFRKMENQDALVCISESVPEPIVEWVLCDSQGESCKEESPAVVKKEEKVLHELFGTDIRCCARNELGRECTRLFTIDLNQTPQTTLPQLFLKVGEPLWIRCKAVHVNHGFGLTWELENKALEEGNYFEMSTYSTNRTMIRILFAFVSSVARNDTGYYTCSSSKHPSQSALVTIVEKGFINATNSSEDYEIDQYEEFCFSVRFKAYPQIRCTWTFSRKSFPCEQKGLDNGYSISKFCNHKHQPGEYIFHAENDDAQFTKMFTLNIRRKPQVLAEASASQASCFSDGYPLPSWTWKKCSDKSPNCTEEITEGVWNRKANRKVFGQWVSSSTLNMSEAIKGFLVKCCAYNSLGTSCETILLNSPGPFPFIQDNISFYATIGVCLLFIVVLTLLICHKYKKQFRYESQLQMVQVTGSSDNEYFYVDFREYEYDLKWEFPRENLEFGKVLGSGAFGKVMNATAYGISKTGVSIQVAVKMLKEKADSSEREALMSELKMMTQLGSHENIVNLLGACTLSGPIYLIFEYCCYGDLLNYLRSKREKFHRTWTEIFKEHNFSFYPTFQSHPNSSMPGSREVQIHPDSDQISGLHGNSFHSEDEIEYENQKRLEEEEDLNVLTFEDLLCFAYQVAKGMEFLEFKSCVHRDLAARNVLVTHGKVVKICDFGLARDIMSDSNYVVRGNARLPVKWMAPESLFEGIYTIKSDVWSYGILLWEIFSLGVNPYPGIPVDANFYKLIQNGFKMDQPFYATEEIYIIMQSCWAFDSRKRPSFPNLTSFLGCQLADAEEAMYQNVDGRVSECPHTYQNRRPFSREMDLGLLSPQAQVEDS
Sequence of PKMYT1 (human) (Q99640 whole entry, looked up): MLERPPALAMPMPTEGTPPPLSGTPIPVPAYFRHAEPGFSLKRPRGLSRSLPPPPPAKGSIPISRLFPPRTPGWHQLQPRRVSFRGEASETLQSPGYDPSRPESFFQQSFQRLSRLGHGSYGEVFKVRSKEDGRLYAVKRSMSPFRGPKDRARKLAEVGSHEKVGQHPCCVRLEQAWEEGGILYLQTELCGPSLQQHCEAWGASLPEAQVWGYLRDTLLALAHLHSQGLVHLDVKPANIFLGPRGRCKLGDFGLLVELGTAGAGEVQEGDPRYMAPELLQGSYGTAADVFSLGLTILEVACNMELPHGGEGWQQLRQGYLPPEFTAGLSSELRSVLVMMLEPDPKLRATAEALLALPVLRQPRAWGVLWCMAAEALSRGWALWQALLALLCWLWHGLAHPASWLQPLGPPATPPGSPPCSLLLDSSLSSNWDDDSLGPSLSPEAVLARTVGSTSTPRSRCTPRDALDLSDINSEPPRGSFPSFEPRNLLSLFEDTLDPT

## CN(C)C/C=C/C(=O)Nc1cccc(Nc2ncc3c(n2)N(C)c2ccccc2C(=O)N3C)c1
[1]
  kinase still bound, per cent of control: 90%
[2]
  kinase still bound, per cent of control: 62%
[3]
  kinase still bound, per cent of control: 0.15%
[4]
  kinase still bound, per cent of control: 100%
[5]
  kinase still bound, per cent of control: 83%
[6]
  kinase still bound, per cent of control: 0.15%
[7]
  kinase still bound, per cent of control: 14%
[8]
  kinase still bound, per cent of control: 14%
[9]
  kinase still bound, per cent of control: 13%
[10]
  kinase still bound, per cent of control: 0.85%
[11]
  kinase still bound, per cent of control: 90%
[12]
  kinase still bound, per cent of control: 100%
[13]
  kinase still bound, per cent of control: 100%
[14]
  kinase still bound, per cent of control: 9.4%
[15]
  kinase still bound, per cent of control: 52%
[16]
  kinase still bound, per cent of control: 1.2%
[17]
  kinase still bound, per cent of control: 100%
[18]
  kinase still bound, per cent of control: 67%
[19]
  kinase still bound, per cent of control: 87%
[20]
  kinase still bound, per cent of control: 6.2%
[21]
  kinase still bound, per cent of control: 100%
[22]
  kinase still bound, per cent of control: 59%
[23]
  kinase still bound, per cent of control: 35%
[24]
  kinase still bound, per cent of control: 0.3%
[25]
  kinase still bound, per cent of control: 83%
[26]
  kinase still bound, per cent of control: 100%
[27]
  kinase still bound, per cent of control: 36%
[28]
  kinase still bound, per cent of control: 100%
[29]
  kinase still bound, per cent of control: 67%
[30]
  kinase still bound, per cent of control: 82%
[31]
  kinase still bound, per cent of control: 36%
[32]
  kinase still bound, per cent of control: 91%
[33]
  kinase still bound, per cent of control: 83%
[34]
  kinase still bound, per cent of control: 100%
[35]
  kinase still bound, per cent of control: 0.1%
[36]
  kinase still bound, per cent of control: 80%
[37]
  kinase still bound, per cent of control: 71%
[38]
  kinase still bound, per cent of control: 0.1%
[39]
  kinase still bound, per cent of control: 100%
[40]
  kinase still bound, per cent of control: 81%
[41]
  kinase still bound, per cent of control: 66%

## Cc1ccc(C(=O)Nc2cccc(C(F)(F)F)c2)cc1Nc1cncc(C(N)=O)c1
[1]
  kinase still bound, per cent of control: 1.8%
[2]
  kinase still bound, per cent of control: 100%
[3]
  kinase still bound, per cent of control: 100%
[4]
  kinase still bound, per cent of control: 100%
[5]
  kinase still bound, per cent of control: 33%
[6]
  kinase still bound, per cent of control: 100%
[7]
  kinase still bound, per cent of control: 100%
[8]
  kinase still bound, per cent of control: 100%
[9]
  kinase still bound, per cent of control: 100%
[10]
  kinase still bound, per cent of control: 100%
[11]
  kinase still bound, per cent of control: 0.35%
[12]
  kinase still bound, per cent of control: 100%
[13]
  kinase still bound, per cent of control: 100%
[14]
  kinase still bound, per cent of control: 100%
[15]
  kinase still bound, per cent of control: 9.4%
[16]
  kinase still bound, per cent of control: 1.9%
[17]
  kinase still bound, per cent of control: 100%
[18]
  kinase still bound, per cent of control: 100%
[19]
  kinase still bound, per cent of control: 100%
[20]
  kinase still bound, per cent of control: 100%
[21]
  kinase still bound, per cent of control: 100%
[22]
  kinase still bound, per cent of control: 100%
[23]
  kinase still bound, per cent of control: 100%
[24]
  kinase still bound, per cent of control: 100%
[25]
  kinase still bound, per cent of control: 100%
[26]
  kinase still bound, per cent of control: 100%
[27]
  kinase still bound, per cent of control: 100%
[28]
  kinase still bound, per cent of control: 100%
[29]
  kinase still bound, per cent of control: 100%
[30]
  kinase still bound, per cent of control: 100%
[31]
  kinase still bound, per cent of control: 100%
[32]
  kinase still bound, per cent of control: 100%
[33]
  kinase still bound, per cent of control: 6.9%
[34]
  kinase still bound, per cent of control: 100%
[35]
  kinase still bound, per cent of control: 1.4%
[36]
  kinase still bound, per cent of control: 100%
[37]
  kinase still bound, per cent of control: 100%
[38]
  kinase still bound, per cent of control: 100%
[39]
  kinase still bound, per cent of control: 100%
[40]
  kinase still bound, per cent of control: 100%
[41]
  kinase still bound, per cent of control: 100%
